In patent US20220220135A1 (BAR-ILAN UNIVERSITY, priority 2019, published 2022):
Read-outs that look alike come from different tables or passages of the source.

Experiments:
human NPP3 [1] = target: T1, human NPP3 (Homo sapiens, UniProt O14638); test: Inhibition of human NPP3, 100 μM p-Nph-5′-TMP as substrate (Tables 5, 7); type: biochemical; settings: 100 μM p-Nph-5′-TMP as a substrate
T1 sequence (O14638 1-875): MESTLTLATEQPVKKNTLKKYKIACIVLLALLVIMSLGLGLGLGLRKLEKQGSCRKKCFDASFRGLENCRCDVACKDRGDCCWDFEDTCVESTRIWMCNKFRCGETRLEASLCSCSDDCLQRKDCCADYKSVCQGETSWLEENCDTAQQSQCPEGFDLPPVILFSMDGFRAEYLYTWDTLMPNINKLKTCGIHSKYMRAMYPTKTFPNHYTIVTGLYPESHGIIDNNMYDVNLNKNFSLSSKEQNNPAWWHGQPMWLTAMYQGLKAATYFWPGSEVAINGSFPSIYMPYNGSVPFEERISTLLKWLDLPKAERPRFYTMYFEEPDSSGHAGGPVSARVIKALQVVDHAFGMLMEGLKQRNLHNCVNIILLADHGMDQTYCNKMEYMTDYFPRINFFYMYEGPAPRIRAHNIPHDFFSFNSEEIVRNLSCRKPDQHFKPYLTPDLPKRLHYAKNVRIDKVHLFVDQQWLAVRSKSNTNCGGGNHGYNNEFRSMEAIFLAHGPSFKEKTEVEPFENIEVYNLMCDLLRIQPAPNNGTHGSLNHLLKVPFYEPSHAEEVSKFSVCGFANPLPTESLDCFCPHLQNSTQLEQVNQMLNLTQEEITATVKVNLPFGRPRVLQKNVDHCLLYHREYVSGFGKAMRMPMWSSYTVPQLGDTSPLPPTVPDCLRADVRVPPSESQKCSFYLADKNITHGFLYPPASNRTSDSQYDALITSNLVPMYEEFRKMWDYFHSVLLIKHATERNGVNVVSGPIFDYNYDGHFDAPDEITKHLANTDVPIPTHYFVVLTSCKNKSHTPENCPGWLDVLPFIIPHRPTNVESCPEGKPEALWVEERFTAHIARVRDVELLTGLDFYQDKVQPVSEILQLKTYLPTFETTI

Human CD39 (NTPDase1) [2] = target: T2, Human CD39 (NTPDase1) (Homo sapiens, UniProt P49961); test: Inhibition of human CD39 (NTPDase1), 100 μM ADP as substrate; type: biochemical; settings: 100 μM ADP as a substrate
T2 sequence (P49961 1-510): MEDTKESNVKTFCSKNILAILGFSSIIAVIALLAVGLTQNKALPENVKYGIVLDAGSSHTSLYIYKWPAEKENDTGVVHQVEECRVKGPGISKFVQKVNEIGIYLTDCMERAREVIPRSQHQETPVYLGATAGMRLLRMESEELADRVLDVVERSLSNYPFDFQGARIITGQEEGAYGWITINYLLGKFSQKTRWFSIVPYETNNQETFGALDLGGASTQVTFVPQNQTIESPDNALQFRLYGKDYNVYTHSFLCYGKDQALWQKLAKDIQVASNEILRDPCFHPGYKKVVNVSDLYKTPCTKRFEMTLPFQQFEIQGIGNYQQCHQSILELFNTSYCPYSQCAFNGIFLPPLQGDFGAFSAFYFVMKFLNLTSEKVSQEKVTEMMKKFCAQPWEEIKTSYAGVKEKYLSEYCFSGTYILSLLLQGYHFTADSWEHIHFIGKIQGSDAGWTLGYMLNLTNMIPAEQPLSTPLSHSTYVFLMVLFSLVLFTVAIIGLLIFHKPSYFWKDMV

NPP1 [3] = target: T3, NPP1 (Homo sapiens, UniProt P22413); settings: literature value; cited from earlier work
T3 sequence (P22413 1-925): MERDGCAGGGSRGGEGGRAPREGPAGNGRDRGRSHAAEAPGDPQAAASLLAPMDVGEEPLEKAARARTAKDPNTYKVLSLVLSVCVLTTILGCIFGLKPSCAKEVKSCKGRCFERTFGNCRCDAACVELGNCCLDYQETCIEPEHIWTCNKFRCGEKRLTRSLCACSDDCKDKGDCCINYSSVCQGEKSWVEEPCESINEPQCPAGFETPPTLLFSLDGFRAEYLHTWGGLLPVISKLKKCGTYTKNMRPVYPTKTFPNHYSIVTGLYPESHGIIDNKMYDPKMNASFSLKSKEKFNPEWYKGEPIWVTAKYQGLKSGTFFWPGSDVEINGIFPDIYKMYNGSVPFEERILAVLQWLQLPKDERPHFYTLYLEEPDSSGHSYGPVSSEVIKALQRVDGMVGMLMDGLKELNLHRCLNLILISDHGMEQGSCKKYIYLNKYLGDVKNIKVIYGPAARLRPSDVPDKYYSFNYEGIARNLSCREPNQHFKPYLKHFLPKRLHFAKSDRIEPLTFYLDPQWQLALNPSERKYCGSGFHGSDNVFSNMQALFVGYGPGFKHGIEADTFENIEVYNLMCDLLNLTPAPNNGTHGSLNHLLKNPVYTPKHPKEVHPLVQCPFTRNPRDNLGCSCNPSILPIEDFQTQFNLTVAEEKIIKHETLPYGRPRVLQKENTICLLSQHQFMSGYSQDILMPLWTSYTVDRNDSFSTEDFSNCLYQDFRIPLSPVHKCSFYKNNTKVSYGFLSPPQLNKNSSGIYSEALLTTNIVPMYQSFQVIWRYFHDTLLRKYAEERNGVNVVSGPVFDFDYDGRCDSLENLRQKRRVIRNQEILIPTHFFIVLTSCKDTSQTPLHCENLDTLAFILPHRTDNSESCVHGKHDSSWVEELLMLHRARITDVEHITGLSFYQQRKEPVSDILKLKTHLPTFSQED

Human CD73 = target: T4, Human CD73 (Homo sapiens, UniProt P21589); settings: literature value; cited from earlier work
T4 sequence (P21589 27-549): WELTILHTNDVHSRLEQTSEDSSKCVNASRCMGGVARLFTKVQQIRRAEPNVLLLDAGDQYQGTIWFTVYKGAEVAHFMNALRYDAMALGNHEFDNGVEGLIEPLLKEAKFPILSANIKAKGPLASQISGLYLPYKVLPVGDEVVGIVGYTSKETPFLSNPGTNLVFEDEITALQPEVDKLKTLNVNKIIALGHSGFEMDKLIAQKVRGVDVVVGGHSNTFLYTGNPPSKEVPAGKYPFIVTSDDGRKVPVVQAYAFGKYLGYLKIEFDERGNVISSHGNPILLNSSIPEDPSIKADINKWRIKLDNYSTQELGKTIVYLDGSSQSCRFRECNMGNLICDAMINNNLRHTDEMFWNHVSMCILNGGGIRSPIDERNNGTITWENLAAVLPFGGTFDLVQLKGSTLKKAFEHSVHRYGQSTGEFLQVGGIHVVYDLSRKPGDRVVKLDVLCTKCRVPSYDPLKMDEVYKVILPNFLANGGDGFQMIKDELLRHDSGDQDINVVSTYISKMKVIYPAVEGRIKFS

[4] = test system: primary human chondrocytes; test: Cell viability of primary human chondrocytes, XTT assay; type: cell-based; settings: cultured primary human chondrocytes, 0.1 mM
Procedure: FIG. 11: Analogs 20-28 are not toxic to primary human chondrocytes. Chondrocytes were incubated with analogs 20-28 at the indicated concentrations for 24 h, and then cell viability was assessed by the XTT assay;
FIG. 15: The effects of analogs 106-109 on primary human chondrocytes. (A) Analogs 106-109 inhibit NPPase activity in primary chondrocytes. NPPase activity was assayed by measuring the hydrolysis of the chromogenic substrate, pnp-TMP. […] Alkaline phosphatase activity was assayed by hydrolysis of p-nitrophenyl phosphate. (C) Analogs 106-109 are not toxic to cultured chondrocytes at a concentration of 0.1 mM. Cell viability was assessed by the XTT assay. Mean (columns) and SD (error bars) of triplicate cell culture experiments are shown.
A prerequisite for the application of inhibitors 20-28 as therapeutic agents is the lack of toxicity. For this purpose, primary human chondrocytes were cultured with analogs 20-28 at a high concentration of 1 mM for 24 h. Thereafter, cell viability was measured relative to untreated controls by the XTT assay and is represented on FIG. 11. No significant decrease in cell's viability was discernible at concentrations of up to 1 mM.

NPP1 [5] = target: T3, NPP1; test: Inhibition of human NPP1, 100 μM ATP as substrate (FIG. 9, Table 6); type: biochemical; settings: for inhibition at 10 µM: n = 3, read-out: % inhibition ± SEM at 10 μM, human NPP1
Procedure: Each experiment was performed in triplicates;

NPP1 [6] = target: T3, NPP1; test: Inhibition of human NPP1, 100 μM p-Nph-5′-TMP as substrate (Tables 5, 6); settings: for inhibition at 10 µM: read-out: % inhibition ± SEM at 10 μM, human NPP1
human NPP3 [7] = target: T1, human NPP3; settings: literature value; cited from earlier work
Human CD39 (NTPDase1) [8] = target: T2, Human CD39 (NTPDase1); settings: literature value; cited from earlier work
human CD39 = target: T5, human CD39 (Homo sapiens, UniProt P49961); test: Inhibition of human CD39, 0.5 μM PSB-170621A as substrate; type: biochemical; settings: 0.5 μM PSB-170621A as a substrate; n = 3
T5 sequence (P49961 1-510): T2 sequence (P49961 1-510)

human P2Y1R = target: T6, human P2Y1R (Homo sapiens, UniProt P47900); test: Calcium mobilization in 1321N1 astrocytoma cells expressing human P2Y1R; type: cell-based
T6 construct: expressed in transfected cells; host or cells: 1321N1 astrocytoma cells
T6 sequence (P47900 whole entry): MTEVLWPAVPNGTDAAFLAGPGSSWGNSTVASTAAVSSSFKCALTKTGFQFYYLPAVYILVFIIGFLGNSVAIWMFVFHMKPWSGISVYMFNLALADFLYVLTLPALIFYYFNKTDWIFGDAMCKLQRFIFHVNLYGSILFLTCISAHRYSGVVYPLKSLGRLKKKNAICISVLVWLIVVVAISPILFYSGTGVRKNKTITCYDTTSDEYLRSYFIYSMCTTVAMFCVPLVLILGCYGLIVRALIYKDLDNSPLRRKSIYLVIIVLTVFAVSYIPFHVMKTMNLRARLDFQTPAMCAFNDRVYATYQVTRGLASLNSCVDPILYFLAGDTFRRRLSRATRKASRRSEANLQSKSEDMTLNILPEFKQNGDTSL
Procedure: (§1) Given the structural resemblance of 106-109 to the natural ligands of P2Y receptors, adenine and uracil nucleotides as natural substrates, were assessed for agonist potency on the human P2Y1, P2Y2, P2Y4, and P2Y6 receptor. To evaluate NPP1 selectivity of analogs 106-109, they were tested for their ability to activate of the uridine-nucleotide sensitive human recombinant P2Y1,2,4,6-receptors. The agonist potencies of this series of nucleotide analogues on the Gq protein-coupled human P2Y1R, P2Y2R, P2Y4R, and P2Y6R was determined by assessing its ability to induce calcium mobilization in stably transfected 1321N1 astrocytoma cells (Table 8). The nucleotide analogues were found in calcium mobilization assays to activate the P2Y2R with mid-micromolar potency.

human P2Y2R = target: T7, human P2Y2R (Homo sapiens, UniProt P41231); test: Calcium mobilization in 1321N1 astrocytoma cells expressing human P2Y2R; type: cell-based
T7 construct: expressed in transfected cells; host or cells: 1321N1 astrocytoma cells
T7 sequence (P41231 whole entry): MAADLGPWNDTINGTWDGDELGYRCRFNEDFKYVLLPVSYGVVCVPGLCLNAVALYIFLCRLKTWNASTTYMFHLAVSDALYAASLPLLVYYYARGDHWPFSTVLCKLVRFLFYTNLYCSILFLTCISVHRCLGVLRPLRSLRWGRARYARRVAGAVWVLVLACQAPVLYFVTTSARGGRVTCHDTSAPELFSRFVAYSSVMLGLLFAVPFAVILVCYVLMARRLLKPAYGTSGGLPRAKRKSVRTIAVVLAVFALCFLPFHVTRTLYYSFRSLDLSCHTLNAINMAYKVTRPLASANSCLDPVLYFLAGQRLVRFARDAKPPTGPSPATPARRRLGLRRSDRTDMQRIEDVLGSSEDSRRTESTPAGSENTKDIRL
Procedure: as §1

human P2Y4R = target: T8, human P2Y4R (Homo sapiens, UniProt P51582); test: Calcium mobilization in 1321N1 astrocytoma cells expressing human P2Y4R; type: cell-based
T8 construct: expressed in transfected cells; host or cells: 1321N1 astrocytoma cells
T8 sequence (P51582 whole entry): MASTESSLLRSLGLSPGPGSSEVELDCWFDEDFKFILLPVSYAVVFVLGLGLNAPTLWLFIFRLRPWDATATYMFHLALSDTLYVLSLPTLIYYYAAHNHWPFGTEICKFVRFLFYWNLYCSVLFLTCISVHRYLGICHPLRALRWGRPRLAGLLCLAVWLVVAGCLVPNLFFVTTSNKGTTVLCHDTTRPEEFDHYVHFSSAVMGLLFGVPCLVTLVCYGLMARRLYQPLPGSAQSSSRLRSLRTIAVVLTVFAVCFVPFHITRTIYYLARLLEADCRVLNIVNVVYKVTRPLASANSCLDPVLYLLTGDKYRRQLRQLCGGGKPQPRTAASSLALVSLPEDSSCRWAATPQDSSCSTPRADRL
Procedure: as §1

P2Y6R = P2Y6R (Homo sapiens, UniProt Q15077); test: Calcium mobilization in 1321N1 astrocytoma cells expressing human P2Y6R; type: cell-based; set-up: expressed in transfected cells; host or cells: 1321N1 astrocytoma cells (stably transfected)
P2Y6R, sequence (Q15077 whole entry): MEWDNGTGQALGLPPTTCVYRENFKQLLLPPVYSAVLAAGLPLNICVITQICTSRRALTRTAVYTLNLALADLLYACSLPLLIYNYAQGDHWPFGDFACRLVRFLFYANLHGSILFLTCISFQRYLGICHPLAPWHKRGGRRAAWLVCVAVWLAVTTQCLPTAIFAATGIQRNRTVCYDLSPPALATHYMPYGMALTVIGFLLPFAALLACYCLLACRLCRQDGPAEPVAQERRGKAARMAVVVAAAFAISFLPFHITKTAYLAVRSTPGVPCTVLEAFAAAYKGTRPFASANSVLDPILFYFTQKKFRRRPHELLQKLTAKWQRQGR
Procedure: as §1

[9] = 10 μM, inactive = no inhibition at 10 μM

| SMILES | cell viability (XTT), toxicity [4] | inhibition at 10 µM (NPP1 [5]; ATP (100 μM) as a substrate) [%] | % activation at 10 μM, P2Y1 (human P2Y1R) [%] | % activation at 10 μM, P2Y2 (human P2Y2R) [%] | % activation at 10 μM, P2Y4 (human P2Y4R) [%] | Ki (NPP1 [6]) [nM] | inhibition at 10 µM (NPP1 [6]) [%] | % activation at 10 μM, P2Y6 (P2Y6R) [%] | further results |
| --- | --- | --- | --- | --- | --- | --- | --- | --- | --- |
| Nc1ncnc2c1ncn2[C@@H]1O[C@H](COP(=O)(O)CP(=O)(O)O)[C@@H](O)[C@H]1O [AOPCP, reference compound] |  |  |  |  |  |  |  |  | % inhibition ± SD at 10 μM, Human NPP3 (human NPP3 [1]; [9]): inactived; % inhibition ± SD at 10 μM, Human CD39 (NTPDase1) (Human CD39 (NTPDase1) [2]; [9]): 12 ± 5%; Ki (Human CD39 (NTPDase1) [2]; read-out: Ki ± SD (μM), Human CD39 (NTPDase1)): > 10 µM; Ki (NPP1 [3]): 1.28 to 16.5 µM; Ki (Human CD73): 0.197 µM |
| Nc1ncnc2c1ncn2COCCOP(=S)(S)OP(=O)(O)O (stereo not drawn) [Analogue 106] | slightly increase cell survival |  |  |  |  |  |  |  |  |
| Nc1ncnc2c1ncn2COCCOP(=S)(S)OP(=O)(O)OP(=O)(O)O (stereo not drawn) [Analogue 107] | slightly increase cell survival |  |  |  |  |  |  |  | inhibition type (Lineweaver-Burk plot) (NPP1 [5]; vs ATP, α value of ~1): non-competitive inhibition; inhibition type (Lineweaver-Burk plot) (NPP1 [6]; vs p-Nph-5′-TMP, […]): non-competitive inhibition |
| Nc1ncnc2c1ncn2COCCOP(=S)(S)OP(=O)(O)C(Cl)(Cl)P(=O)(O)O (stereo not drawn) [Analogue 109] | slightly increase cell survival |  |  |  |  |  |  |  |  |
| Nc1c(S(=O)(=O)O)cc(Nc2ccc(Nc3nc(Cl)nc(Nc4cccc(S(=O)(=O)O)c4)n3)c(S(=O)(=O)O)c2)c2c1C(=O)c1ccccc1C2=O [Reactive Blue 2] |  |  |  |  |  |  |  |  | Ki (NPP1 [3]): 0.52 µM; Ki (human NPP3 [7]): 0.71 µM; Ki (Human CD39 (NTPDase1) [8]): 20 µM; Ki (Human CD73): 3.07 µM |
| Cc1ccc(C(=O)Nc2ccc(S(=O)(=O)O)c3cc(S(=O)(=O)O)cc(S(=O)(=O)O)c23)cc1NC(=O)c1cccc(NC(=O)Nc2cccc(C(=O)Nc3cc(C(=O)Nc4ccc(S(=O)(=O)O)c5cc(S(=O)(=O)O)cc(S(=O)(=O)O)c45)ccc3C)c2)c1 [Suramin] |  |  |  |  |  |  |  |  | Ki (Human CD39 (NTPDase1) [8]): 300 µM |
| Nc1ncnc2c1ncn2COCCOP(=S)(S)OP(=O)(O)OP(=O)(O)O (stereo not drawn) [compound 107] |  | 66 ± 1 | −1 ± 1 | 39 ± 13 | −2 ± 2 | 1980 | 74 ± 1 | −5 ± 3 | Ki (NPP1 [5]; ATP (100 μM) as a substrate, read-out: Ki (μM ± SD), human NPP1 (converted)): 0.334 µM; % inhibition ± SEM, human NPP3 (human NPP3 [1]; n = 3): 17 ± 1%; % inhibition ± SEM, human CD39 (human CD39): 28 ± 1% |
| Nc1ncnc2c1ncn2COCCOP(=S)(S)OP(=O)(O)CP(=O)(O)O (stereo not drawn) [compound 108] |  | 16 ± 3 | 0 ± 1 | 44 ± 9 | −2 ± 1 | 2160 | 65 ± 1 | −8 ± 2 |  |
| Nc1ncnc2c1ncn2COCCOP(=S)(S)OP(=O)(O)C(Cl)(Cl)P(=O)(O)O (stereo not drawn) [compound 109] |  | 37 ± 1 | −2 ± 1 | 21 ± 5 | 0 ± 2 | 698 | 85 ± 2 | 2 ± 4 |  |
